From article PMC12472391, “Borylated Five-Membered Ring Iminosugars: Synthesis, Spectroscopic Analysis, and Biological Evaluation for Glycosidase Inhibition and Anticancer Properties for Application in Boron Neutron Capture Therapy (BNCT)—Part 1” (Pharmaceuticals, 2025)

Tests used:
β-D-glucosidase (almond) [1] = experiment: Glycosidase inhibition, Table 7; type: biochemical; conditions: 1 mg/mL aqueous solution added, 27 °C, run in water
Procedure: (§1) All enzymes and para-nitrophenyl substrates were purchased from Sigma. Enzymes were assayed at 27 °C in citric acid (0.1M)/disodium hydrogen phosphate (0.2 M) buffers at the optimum pH for the enzyme. The incubation mixture consisted of […] enzyme solution, […] of 1 mg/mL aqueous solution of extract, and […] of the appropriate 5 mM para-nitrophenyl substrate made up in buffer at the optimum pH for the enzyme. The reactions were stopped by the addition of […] 0.4 M glycine (pH 10.4) during the exponential phase of the reaction, which had been determined at the beginning using uninhibited assays in which water replaced the inhibitor. Final absorbances were read at 405 nm using a Versamax microplate reader (Molecular Devices). Assays were carried out in triplicate, and the values given are the means of the three replicates per assay. All reactions run in water.

[2] = test system: β-D-glucuronidase (bovine liver); experiment: Glycosidase inhibition, Table 7; type: biochemical; conditions: 1 mg/mL aqueous solution added, 27 °C, run in water
Procedure: as §1

α-D-glucosidase (yeast) = molecular target: T1, α-D-glucosidase (yeast) (Saccharomyces cerevisiae, UniProt P53341); experiment: Glycosidase inhibition, Table 7; type: biochemical; conditions: 1 mg/mL aqueous solution added, 27 °C, run in water; for inhibition at 1000 µg/mL (stock): read-out: α-D-Glucosidase Yeast, percentage inhibition
T1 construct: purchased Sigma
T1 sequence (P53341 whole entry): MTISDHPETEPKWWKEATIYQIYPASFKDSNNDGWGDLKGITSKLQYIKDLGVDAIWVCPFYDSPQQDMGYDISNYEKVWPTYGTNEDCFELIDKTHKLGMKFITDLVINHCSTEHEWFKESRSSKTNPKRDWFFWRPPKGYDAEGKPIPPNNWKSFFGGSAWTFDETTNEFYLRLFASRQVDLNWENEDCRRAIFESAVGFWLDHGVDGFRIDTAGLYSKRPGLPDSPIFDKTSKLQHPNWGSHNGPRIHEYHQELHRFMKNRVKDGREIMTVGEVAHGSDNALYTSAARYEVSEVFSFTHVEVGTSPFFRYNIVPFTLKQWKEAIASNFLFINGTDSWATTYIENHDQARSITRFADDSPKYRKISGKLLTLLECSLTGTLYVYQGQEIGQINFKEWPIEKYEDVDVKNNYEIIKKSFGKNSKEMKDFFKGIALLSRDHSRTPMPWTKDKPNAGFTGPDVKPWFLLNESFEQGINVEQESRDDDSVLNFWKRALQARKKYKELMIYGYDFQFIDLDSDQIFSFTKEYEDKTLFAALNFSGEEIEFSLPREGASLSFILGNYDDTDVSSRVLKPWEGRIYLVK
Procedure: as §1

[3] = Appearance: 1 mL of water added to 1 mg of solid, and mixed; type: physicochemical
β-D-glucosidase (almond) [4] = experiment: Glycosidase inhibition, Table 6 (Laboratory 1); type: biochemical
From the text: (§2) The enzymes α-D-glucosidase (from yeast), β-D-glucosidases (from almond and bovine liver), α-D-galactosidase (from coffee beans), β-D-galactosidase (from bovine liver), α-D-mannosidase (from Jack bean), β-D-mannosidase (from snail), α-L-rhamnosidase (from Penicillium decumbens), α-L-fucosidase (from bovine kidney), trehalase (from porcine kidney), β-D-glucuronidases (from E. coli and bovine liver), amyloglucosidase (from A. niger), para-nitrophenyl glycosides, and various disaccharides were purchased from Sigma-Aldrich Co. (St. Louis, MO, USA).
(§3) Brush border membranes were prepared from the rat small intestine according to the method of Kessler et al., and were assayed at pH 6.8 for rat intestinal maltase using maltose. For rat intestinal maltase, porcine kidney trehalase, and A. niger amyloglucosidase activities, the reaction mixture contained maltose (25 mM) and the appropriate amount of enzyme, and the incubations were performed for 10–30 min at 37 °C. The reaction was stopped by heating at 100 °C for 3 min. After centrifugation (600× g; 10 min), the resulting reaction mixture was added to the Glucose CII-test Wako (Wako Pure Chemical Ind., Osaka, Japan). The absorbance at 505 nm was measured to determine the amount of the released D-glucose. Other glycosidase activities were determined using an appropriate para-nitrophenyl glycoside as substrate at the optimum pH of each enzyme. The reaction mixture contained the substrate (2 mM) and the appropriate amount of enzyme. The reaction was stopped by the addition of Na2CO3 (400 mM). The released para-nitrophenol was measured spectrometrically at 400 nm. All reactions run in methanol.

[5] = test system: α-L-rhamnosidase (from Penicillium decumbens); experiment: Glycosidase inhibition, Table 6 (Laboratory 1); type: biochemical
From the text: as §2, §3

[6] = molecular target: T2, α-D-glucosidase (from yeast) (Saccharomyces cerevisiae, UniProt P53341); experiment: Glycosidase inhibition, Table 6 (Laboratory 1); type: biochemical
T2 construct: purchased Sigma-Aldrich Co
T2 sequence (P53341 whole entry): as above
From the text: as §2, §3

[7] = test system: β-D-glucuronidase (bovine liver); experiment: Glycosidase inhibition, Table 6 (Laboratory 1); type: biochemical
From the text: as §2, §3

[8] = molecular target: T3, α-D-galactosidase (from coffee beans) (Coffea arabica, UniProt Q42656); experiment: Glycosidase inhibition, Table 6 (Laboratory 1); type: biochemical
T3 construct: purchased Sigma-Aldrich Co
T3 sequence (Q42656 16-378): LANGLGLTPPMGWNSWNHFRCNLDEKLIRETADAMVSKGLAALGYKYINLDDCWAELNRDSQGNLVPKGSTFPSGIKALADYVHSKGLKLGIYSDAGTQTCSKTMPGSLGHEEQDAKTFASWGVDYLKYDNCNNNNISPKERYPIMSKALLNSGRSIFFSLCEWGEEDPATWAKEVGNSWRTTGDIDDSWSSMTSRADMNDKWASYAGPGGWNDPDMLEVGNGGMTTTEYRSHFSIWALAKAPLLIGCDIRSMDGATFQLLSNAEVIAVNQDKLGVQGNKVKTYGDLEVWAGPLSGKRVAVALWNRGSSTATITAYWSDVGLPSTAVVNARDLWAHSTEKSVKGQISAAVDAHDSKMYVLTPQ
From the text: as §2, §3

[9] = test system: MCF10A normal breast cells; experiment: Cancer screening, MTT growth inhibition; type: cell-based; conditions: 72-h exposure; for inhibition at 25 µM / GI50: Homo sapiens, MCF-10A; for inhibition at 25 µM: read-out: MCF10A Breast (Normal), Percentage (%) Cell Growth Inhibition in response to 25 µM of Drug; for GI50: dose response, read-out: MCF10A Breast (Normal), GI50 = Concentration (µM) that inhibits cell growth by 50%
Procedure: Two assays were run: the dose screen to ascertain cell growth inhibition in response to 25 µM of drug (on a blue background) and the dose response (GI50) (on a green background). For a discussion of BNCT as a radiotherapeutic modality, a rationalisation is provided here.
All test agents were prepared as stock solutions (20 mM) in dimethyl sulfoxide (DMSO) and stored at −20 °C. Cell lines used in the study included HT29, (colorectal carcinoma); U87, SJ-G2, (glioblastoma); MCF-7, (breast carcinoma); A2780 (ovarian carcinoma); H460 (lung carcinoma); A431 (skin carcinoma); Du145 (prostate carcinoma); BE2-C (neuroblastoma) and MiaPaCa-2 (pancreatic carcinoma); together with the one non-tumour derived normal breast cell line (MCF10A). All cell lines were incubated in a humidified atmosphere 5% CO2 at 37 °C. The cancer cell lines were maintained in Dulbecco’s modified Eagle’s medium (DMEM; Sigma, Australia) supplemented with foetal bovine serum (10%), sodium pyruvate (10 mM), penicillin (100 IUmL^−1), streptomycin (100 µg mL^−1), and L-glutamine (2 mM).
The non-cancer MCF10A cell line was maintained in DMEM/F12 (1:1) cell culture media, 5% heat inactivated horse serum, supplemented with penicillin (50 IUmL^−1), streptomycin (50 µg mL^−1), HEPES (20 mM), L-glutamine (2 mM), epidermal growth factor (20 ng mL^−1), hydrocortisone (500 ng mL^−1), cholera toxin (100 ng mL^−1), and insulin (10 mg mL^−1).
Growth inhibition was determined by plating cells in duplicate in medium (100 µL) at a density of 2500–4000 cells per well in 96-well plates. On day 0 (24 h after plating), when the cells are in logarithmic growth, medium (100 µL) with or without the test agent was added to each well. After a 72-h drug exposure, growth inhibitory effects were evaluated using the MTT (3-(4,5-dimethyltiazol-2-yl)-2,5-diphenyltetrazolium bromide) assay and absorbance read at 540 nm. The percentage growth inhibition was calculated at a fixed concentration of 25 µM, based on the difference between the optical density values on day 0 and those at the end of drug exposure. Each data point is the mean ± the standard error of the mean (SEM) calculated from three replicates, which were performed on separate occasions and separate cell line passages.

Molecule	β-D-Glucosidase Almond, percentage inhibition (β-D-glucosidase (almond) [1])	β-D-Glucuronidase Bovine Liver, percentage inhibition [2]	inhibition at 1000 µg/mL (stock) (α-D-glucosidase (yeast))	Appearance [3]	β-D-Glucosidase Almond, inhibition % at 1000 μM (β-D-glucosidase (almond) [4])	α-L-Rhamnosidase P. decumbens, inhibition % at 1000 μM [5]	inhibition at 1000 µM [6]	β-D-Glucuronidase Bovine Liver, inhibition % at 1000 μM [7]	inhibition at 1000 µM [8]	inhibition at 25 µM [9]	β-D-Glucosidase Almond, inhibition % at 100 μM (β-D-glucosidase (almond) [4])	α-L-Rhamnosidase P. decumbens, inhibition % at 100 μM [5]	inhibition at 100 µM [6]	β-D-Glucuronidase Bovine Liver, inhibition % at 100 μM [7]	other results
OC[C@H](O)[C@@H]1[C@H](O)[C@H](O)CN1Cc1ccc(B(O)O)cc1 [para 8, N-(4-Methylphenylboronic acid)-1,4-dideoxy-1,4-imino-L-gulitol]	23.9%	2.4%	9.7%	In solution	^a NI ^b (28%)	^a NI ^b (26.3%)	5.6%	^a NI ^b (6.0%)	1.4%	1%	–	–	–	–	GI50 [9]: > 50 µM
OB(O)c1ccc(CN2CC(O)C3OC(O)C(O)C32)cc1 [para 7, N-(4-Methylphenylboronic acid)-3,6-dideoxy-3,6-imino-D-gulofuranose]	68.1%	1.1%	4.2%	In solution	^a NI ^b (43.6%)	^a NI ^b (15.8%)	0%	^a NI ^b (3.5%)	0%	4 ± 2%	–	–	–	–	GI50 [9]: > 50 µM
OC1O[C@@H]2[C@H]([C@H]1O)N(Cc1ccccc1)C[C@H]2O (stereo partly drawn) [Compound 4, N-Benzyl-3,6-dideoxy-3,6-imino-D-gulofuranose]	58.1%	−4.3%	-79%	In solution	^a NI ^b (27.4%)	^a NI ^b (0%)	0%	^a NI ^b (7.0%)	1.8%	14%	–	–	–	–	–
CC1(C)O[C@H]2O[C@H]3[C@@H]([C@H]2O1)N(Cc1ccc(B2OC(C)(C)C(C)(C)O2)cc1)C[C@H]3O [para 6, N-(4-Methylphenylboronic acid pinacol ester)-3,6-dideoxy-3,6-imino-1,2-O-isopropylidene-α-D-gulofuranose]	–	–	–	Completely insoluble	–	–	–	–	–	14%	^c NI ^d (0%)	^c NI ^d (1.4%)	3.4%	^c NI ^d (0%)	inhibition at 100 µM [8]: 1.6%
borocaptate sodium [BSH, reference compound]	47.3%	31.6%	–	In solution	^a NI ^b (0%)	^a NI ^b (0.2%)	–	^a NI ^b (19.6%)	–	–	–	–	–	–	α-D-Glucosidase Yeast, percentage inhibition (α-D-glucosidase (yeast)): 59%; α-D-Glucosidase Yeast, inhibition % at 1000 μM ([6]; 1000 μM): ^a NI ^b (6.9%); α-D-Galactosidase Coffee Beans, inhibition % at 1000 μM ([8]; 1000 μM): ^a NI ^b (12.3%); MCF10A Breast (Normal), Percentage (%) Cell Growth Inhibition in response to 25 µM of Drug [9]: * 8 ± 3%
N[C@@H](Cc1ccc(B(O)O)cc1)C(=O)O [^10B-BPA, reference compound]	3%	−1%	–	Some in solution with undissolved sediment	–	–	–	–	–	–	^c NI ^d (0%)	^c NI ^d (0%)	–	^c NI ^d (0%)	α-D-Glucosidase Yeast, percentage inhibition (α-D-glucosidase (yeast)): 3.4%; α-D-Glucosidase Yeast, inhibition % at 100 μM ([6]; 100 μM): ^c NI ^d (0%); α-D-Galactosidase Coffee Beans, inhibition % at 100 μM ([8]; 100 μM): ^c NI ^d (1.2%); MCF10A Breast (Normal), Percentage (%) Cell Growth Inhibition in response to 25 µM of Drug [9]: * <0%
CC1(C)O[C@H]2O[C@H]3[C@@H]([C@H]2O1)N(Cc1ccccc1)C[C@H]3O [Compound 3, N-Benzyl-3,6-dideoxy-3,6-imino-1,2-O-isopropylidene-α-D-gulofuranose]	−8.3%	−0.2%	-89%	In solution	–	–	–	–	–	9%	^c NI ^d (0%)	^c NI ^d (0.5%)	4.7%	^c NI ^d (0%)	inhibition at 100 µM [8]: 9.5%
N[C@@H](Cc1ccc(B(O)O)cc1)C(=O)O [BPA, 4-borono-L-phenylalanine, reference compound]	3.9%	−0.7%	2.9%	Some in solution with undissolved sediment	–	–	–	–	–	4%	^c NI ^d (0%)	^c NI ^d (0%)	0%	^c NI ^d (7.4%)	–
